Measured values from patent US20150045391A1, “FILANESIB COMBINED WITH POMALIDOMIDE DISPLAYS ENHANCED ANTI-TUMOR ACTIVITY” (Array BioPharma Inc., priority 2013, published 2015).

What was measured:
RPMI-8226 xenografts [1] = test: RPMI-8226 dose ranging xenograft (Example 4); assay type: in vivo, mice; conditions: for % Cure Rate: no palpable tumor 158 days from study start
Procedure: Female SCID-Beige mice were inoculated subcutaneously with 10×10^6 RPMI-8226 tumor cells in 50% 1×PBS 50% Matrigel™ (100 μL). […] Tumor size and animal body weight were measured on the indicated days over the course of each study. Tumor volume was calculated using the formula, volume=[…]. Percent cure rate indicates an animal has no palpable tumor 158 days from study start.

H929 xenografts = test: H929 xenograft tumor growth inhibition (Example 2); assay type: in vivo, mice; conditions: for % Complete Response: SCID-beige mice, filanesib 12.5 mg/kg IP days 1 and 2, pomalidomide 10 mg/kg IP QD days 1-21, no palpable tumor for 2 consecutive measurements; for % Max Body Weight Loss: filanesib 12.5 mg/kg IP days 1 and 2, pomalidomide 10 mg/kg IP QD days 1-21
Procedure: (§1) Female SCID-beige mice were inoculated subcutaneously with 10×10^6 H929 (FIG. 2), RPMI-8226 (FIG. 3) or JJN3 (FIG. 4) tumor cells in 50% 1× phosphate buffered saline (“PBS”) 50% Matrigel™ (100 μL). […] Tumor size and animal body weight were measured on the days indicated in FIGS. 2-4 over the course of each study. Tumor volume was calculated using the formula, volume=[…]. Percent complete response indicates an animal has no palapable tumor for 2 consecutive measurements.

RPMI-8226 xenografts [2] = test: RPMI-8226 xenograft tumor growth inhibition (Example 2); assay type: in vivo, mice; conditions: for % Complete Response / % Max Body Weight Loss: RPMI-8226, filanesib 12.5 mg/kg IP days 1 and 2, pomalidomide 10 mg/kg IP QD days 1-21; for % Complete Response: SCID-beige mice, no palpable tumor for 2 consecutive measurements; for cure rate: RPMI-8226 model, filanesib 12.5 mg/kg IP D1, 2, pomalidomide 10 mg/kg IP QD, cure = no palpable tumor 100 days from study initiation
Procedure: as §1

[3] = Predicted in vitro IC50 of filanesib
[4] = Hematology profiles and body weight in naive CD-1 mice (Example 3); assay type: in vivo; conditions: for neutropenia / neutrophil loss, in words: hematology analysis in mice
Procedure: Naïve male CD-1 mice were administered saline vehicle (10 mL/kg, IP, days 1 and 2), filanesib (12.5 mg/kg, IP, days 1 and 2) and/or pomalidomide (1 or 10 mg/kg, IP, QD, days 1-14). Hematology parameters (platelets FIG. 5, lymphocytes FIG. 6, neutrophils FIG. 7) were measured on days 5 and 12, and animal body weight (FIG. 8) was measured on days 1, 3, 5, 8, 10 and 12. For hematology analysis, blood was collected 12 hours following the final dose via cardiac puncture, […] was prepared, and hematology profiles were measured on Hemavet 950FS analyzer.

JJN3 xenografts = test: JJN3 xenograft tumor growth inhibition (Example 2); assay type: in vivo, mice; conditions: for % Complete Response: SCID-beige mice, filanesib 12.5 mg/kg IP days 1 and 2, pomalidomide 10 mg/kg IP QD days 1-19, no palpable tumor for 2 consecutive measurements; for % Max Body Weight Loss: filanesib 12.5 mg/kg IP days 1 and 2, pomalidomide 10 mg/kg IP QD days 1-19
Procedure: as §1

[5] = Plasma exposure after a single IP dose of filanesib and/or pomalidomide (Example 1); assay type: in vivo; conditions: mouse, male CD-1 mice
Procedure: Naïve male CD-1 mice were administered a single intraperitoneal (“IP”) bolus dose of filanesib (12.5 mg/kg) and/or pomalidomide (10 mg/kg). Blood was collected at 4, 8, 12, 16, 20 and 24 hours via cardiac puncture, ethylenediaminetetraacetic acid (“EDTA”) plasma was prepared, and concentration of plasma analytes were measured.

[6] = Dose limiting toxicity of filanesib; conditions: in vivo
[7] = filanesib 7.5 mg/kg IP days 1 and 2 and/or pomalidomide 5 mg/kg IP QD days 1-21
[8] = filanesib 12.5 mg/kg IP days 1 and 2 and/or pomalidomide 10 mg/kg IP QD days 1-21
[9] = Day 5, filanesib 12.5 mg/kg IP days 1 and 2 and/or pomalidomide 1 mg/kg IP QD days 1-14
[10] = Day 12, filanesib 12.5 mg/kg IP days 1 and 2 and/or pomalidomide 1 mg/kg IP QD days 1-14
[11] = filanesib 12.5 mg/kg IP days 1 and 2 and/or pomalidomide 1 mg/kg IP QD days 1-14
[12] = filanesib in plasma, single IP bolus filanesib 12.5 mg/kg alone or with pomalidomide 10 mg/kg
[13] = Day 5, pomalidomide 10 mg/kg IP QD days 1-14, alone or with filanesib 12.5 mg/kg IP days 1 and 2
[14] = Day 12, pomalidomide 10 mg/kg IP QD days 1-14, alone or with filanesib 12.5 mg/kg IP days 1 and 2
[15] = pomalidomide in plasma, single IP bolus pomalidomide 10 mg/kg alone or with filanesib 12.5 mg/kg

| Structure (SMILES) | % Max Body Weight Loss (RPMI-8226 xenografts [1]; [7]) | % Cure Rate (RPMI-8226 xenografts [1]; [7]) | % Max Body Weight Loss (RPMI-8226 xenografts [1]; [8]) | % Cure Rate (RPMI-8226 xenografts [1]; [8]) | % Complete Response (H929 xenografts) | % Max Body Weight Loss (H929 xenografts) | % Complete Response (RPMI-8226 xenografts [2]) | % Max Body Weight Loss (RPMI-8226 xenografts [2]) | cure rate (RPMI-8226 xenografts [2]) | % Decrease in Cell Counts from Vehicle, Lymphocytes [4, 9] | % Decrease in Cell Counts from Vehicle, Neutrophils [4, 9] | % Decrease in Cell Counts from Vehicle, Platelets [4, 9] | % Decrease in Cell Counts from Vehicle, Lymphocytes [4, 10] | % Decrease in Cell Counts from Vehicle, Neutrophils [4, 10] | % Decrease in Cell Counts from Vehicle, Platelets [4, 10] | % Max Body Weight Loss [4, 11] | neutropenia / neutrophil loss, in words [4] | % Complete Response (JJN3 xenografts) | % Max Body Weight Loss (JJN3 xenografts) | other results |
| --- | --- | --- | --- | --- | --- | --- | --- | --- | --- | --- | --- | --- | --- | --- | --- | --- | --- | --- | --- | --- |
| CON(C)C(=O)N1N=C(c2cc(F)ccc2F)S[C@@]1(CCCN)c1ccccc1.Cl [filanesib, (S)-2-(3-aminopropyl)-5-(2,5-difluorophenyl)-N-methoxy-N-methyl-2-phenyl-1,3,4-thiadiazole-3(2H)-carboxamide hydrochloride] | 3.7% | 0% | 8.0% | 0% | 0% | 8.9% | 50% | 5.3% | 0% | 34% | 69% | 9% | 0% | 0% | 0% | 0% | caused neutropenia | 0% | 6.6% | predicted in vitro IC50 [3]: about 0.2 ng/mL; AUC(0-t) [5, 12]: 3090 ng·h/mL; Cmax [5, 12]: 1660 ng/mL; Tmax [5, 12]: 4.98 min; major dose limiting toxicity (DLT) [6]: neutropenia |
| Nc1cccc2c1C(=O)N(C1CCC(=O)NC1=O)C2=O (centres unmarked) [pomalidomide] | 0.5% | 0% | 1.4% | 0% | 28.5% | 4.4% | 12.5% | 0.9% | 0% | 9% | 27% | 8% | 0% | 0% | 0% | 0% | caused neutropenia | 0% | 0% | % Decrease in Cell Counts from Vehicle, Lymphocytes [4, 13]: 4%; % Decrease in Cell Counts from Vehicle, Neutrophils [4, 13]: 21%; % Decrease in Cell Counts from Vehicle, Platelets [4, 13]: 10%; % Decrease in Cell Counts from Vehicle, Lymphocytes [4, 14]: 0%; % Decrease in Cell Counts from Vehicle, Neutrophils [4, 14]: 0%; % Decrease in Cell Counts from Vehicle, Platelets [4, 14]: 0%; % Max Body Weight Loss ([4]; pomalidomide 10 mg/kg IP QD days 1-14, alone or with filanesib 12.5 mg/kg IP days 1 and 2): 0%; AUC(0-t) [5, 15]: 3080 ng·h/mL; Cmax [5, 15]: 956 ng/mL; Tmax [5, 15]: 4.98 min |
